Laboratory results reported in patent US20210045385A1, “PYRIDAZINONE-SUBSTITUTED KETOXIMES AS HERBICIDES” (FMC Corporation, priority 2018, published 2021).

Assays:
Format in all cases: in vivo
[1] = tested on: Italian ryegrass (Lolium multiflorum); assay: Test A preemergence, visual plant response rating; conditions: for Ryegrass, Italian plant response rating: 125 g ai/ha, preemergence, 0 to 100 scale, 0 no effect, 100 complete control; for Ryegrass, Italian plant response rating (0 to 100 scale): 500 g ai/ha Preemergence, approx. 10 days
In short: (§1)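 Ratings use a 0–100 visual scale (100 = complete control) against untreated controls, scored about 10 days after greenhouse treatment. Test chemicals were formulated in surfactant-containing non-phytotoxic solvent and applied either as soil spray after planting (preemergence) or onto one- to two-leaf, 2–10 cm plants (postemergence).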

[2] = tested on: barnyardgrass (Echinochloa crus-galli); assay: Test A preemergence, visual plant response rating; conditions: for Barnyardgrass plant response rating: 125 g ai/ha, preemergence, 0 to 100 scale, 0 no effect, 100 complete control; for Barnyardgrass plant response rating (0 to 100 scale): 500 g ai/ha Preemergence, approx. 10 days
In short: as §1

[3] = tested on: foxtail, giant (giant foxtail, Setaria faberii); assay: Test A preemergence, visual plant response rating; conditions: for Foxtail, Giant plant response rating: 125 g ai/ha, preemergence, 0 to 100 scale, 0 no effect, 100 complete control; for Foxtail, Giant plant response rating (0 to 100 scale): 500 g ai/ha Preemergence, approx. 10 days
In short: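 Preemergence: seeds in loam/sand blend given directed soil spray of compound in non-phytotoxic solvent with surfactant. Postemergence: plants 2–10 cm, one- to two-leaf stage, sprayed with same formulation. Visual injury rated vs untreated controls after ~10 days in greenhouse, 0 (no effect) to 100 (complete control).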

kochia (Kochia scoparia) [4] = assay: Test A preemergence, visual plant response rating; conditions: for Kochia plant response rating: 125 g ai/ha, preemergence, 0 to 100 scale, 0 no effect, 100 complete control; for Kochia plant response rating (0 to 100 scale): 500 g ai/ha Preemergence, approx. 10 days
In short: as §1

[5] = tested on: pigweed (Amaranthus retroflexus); assay: Test A preemergence, visual plant response rating; conditions: for Pigweed plant response rating: 125 g ai/ha, preemergence, 0 to 100 scale, 0 no effect, 100 complete control; for Pigweed plant response rating (0 to 100 scale): 500 g ai/ha Preemergence, approx. 10 days
In short: as §1

[6] = tested on: ragweed (common ragweed, Ambrosia elatior); assay: Test A preemergence, visual plant response rating; conditions: for Ragweed plant response rating: 125 g ai/ha, preemergence, 0 to 100 scale, 0 no effect, 100 complete control; for Ragweed plant response rating (0 to 100 scale): 500 g ai/ha Preemergence, approx. 10 days
In short: as §1

[7] = tested on: Italian ryegrass (Lolium multiflorum); assay: Test A postemergence, visual plant response rating; conditions: for Ryegrass, Italian plant response rating (0 to 100 scale): 500 g ai/ha, postemergence, 0 is no effect, 100 is complete control; for Ryegrass, Italian plant response rating: Postemergence, 125 g ai/ha, 0 to 100 scale (0 no effect, 100 complete control)
In short: as §1

[8] = tested on: barnyardgrass (Echinochloa crus-galli); assay: Test A postemergence, visual plant response rating; conditions: for Barnyardgrass plant response rating (0 to 100 scale): 500 g ai/ha, postemergence, 0 is no effect, 100 is complete control; for Barnyardgrass plant response rating: Postemergence, 125 g ai/ha, 0 to 100 scale (0 no effect, 100 complete control)
In short: as §1

[9] = tested on: blackgrass (Alopecurus myosuroides); assay: Test A postemergence, visual plant response rating; conditions: for Blackgrass plant response rating (0 to 100 scale): 500 g ai/ha, postemergence, 0 is no effect, 100 is complete control; for Blackgrass plant response rating: Postemergence, 125 g ai/ha, 0 to 100 scale (0 no effect, 100 complete control)
In short: as §1

corn (Zea mays) = assay: Test A postemergence, visual plant response rating; conditions: for Corn plant response rating (0 to 100 scale): 500 g ai/ha, postemergence, 0 is no effect, 100 is complete control; for Corn plant response rating: Postemergence, 125 g ai/ha, 0 to 100 scale (0 no effect, 100 complete control)
In short: as §1

[10] = tested on: foxtail, giant (giant foxtail, Setaria faberii); assay: Test A postemergence, visual plant response rating; conditions: for Foxtail, Giant plant response rating (0 to 100 scale): 500 g ai/ha, postemergence, 0 is no effect, 100 is complete control; for Foxtail, Giant plant response rating: Postemergence, 125 g ai/ha, 0 to 100 scale (0 no effect, 100 complete control)
In short: as §1

[11] = tested on: galium (catchweed bedstraw, Galium aparine); assay: Test A postemergence, visual plant response rating; conditions: for Galium plant response rating (0 to 100 scale): 500 g ai/ha, postemergence, 0 is no effect, 100 is complete control; for Galium plant response rating: Postemergence, 125 g ai/ha, 0 to 100 scale (0 no effect, 100 complete control)
In short: as §1

kochia (Kochia scoparia) [12] = assay: Test A postemergence, visual plant response rating; conditions: for Kochia plant response rating (0 to 100 scale): 500 g ai/ha, postemergence, 0 is no effect, 100 is complete control; for Kochia plant response rating: Postemergence, 125 g ai/ha, 0 to 100 scale (0 no effect, 100 complete control)
In short: as §1

[13] = tested on: pigweed (Amaranthus retroflexus); assay: Test A postemergence, visual plant response rating; conditions: for Pigweed plant response rating (0 to 100 scale): 500 g ai/ha, postemergence, 0 is no effect, 100 is complete control; for Pigweed plant response rating: Postemergence, 125 g ai/ha, 0 to 100 scale (0 no effect, 100 complete control)
In short: as §1

[14] = tested on: ragweed (common ragweed, Ambrosia elatior); assay: Test A postemergence, visual plant response rating; conditions: for Ragweed plant response rating (0 to 100 scale): 500 g ai/ha, postemergence, 0 is no effect, 100 is complete control; for Ragweed plant response rating: Postemergence, 125 g ai/ha, 0 to 100 scale (0 no effect, 100 complete control)
In short: as §1

[15] = tested on: wheat (Triticum aestivum); assay: Test A postemergence, visual plant response rating; conditions: for Wheat plant response rating (0 to 100 scale): 500 g ai/ha, postemergence, 0 is no effect, 100 is complete control; for Wheat plant response rating: Postemergence, 125 g ai/ha, 0 to 100 scale (0 no effect, 100 complete control)
In short: as §1

[16] = tested on: barnyardgrass (Echinochloa crus-galli); assay: Test B flooded paddy test, visual plant response rating; conditions: 250 g ai/ha, Flood, applied to paddy water, 2-leaf stage, evaluated after 13 to 15 days
In short: (§2)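 Flooded-pot treatment: water 3 cm over the soil, chemical delivered into that water, depth unchanged for the duration. Assessed by eye versus controls following 13–15 greenhouse days; plants were at 2 leaves when dosed.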

[17] = tested on: ducksalad (Heteranhera limosa); assay: as above; conditions: 250 g ai/ha, Flood, applied to paddy water, 2-leaf stage, evaluated after 13 to 15 days
In short: as §2

rice (Oryza sativa) = assay: as above; conditions: 250 g ai/ha, Flood, applied to paddy water, 2-leaf stage, evaluated after 13 to 15 days
In short: as §2

[18] = tested on: sedge, umbrella (small-flower umbrella sedge, Cyperus difformis); assay: as above; conditions: 250 g ai/ha, Flood, applied to paddy water, 2-leaf stage, evaluated after 13 to 15 days
In short: as §2

SMILES	Ryegrass, Italian plant response rating [1]	Ryegrass, Italian plant response rating (0 to 100 scale) [1]	Barnyardgrass plant response rating [2]	Barnyardgrass plant response rating (0 to 100 scale) [2]	Foxtail, Giant plant response rating [3]	Foxtail, Giant plant response rating (0 to 100 scale) [3]	Kochia plant response rating (kochia (Kochia scoparia) [4])	Kochia plant response rating (0 to 100 scale) (kochia (Kochia scoparia) [4])	Pigweed plant response rating [5]	Pigweed plant response rating (0 to 100 scale) [5]	Ragweed plant response rating [6]	Ragweed plant response rating (0 to 100 scale) [6]	Ryegrass, Italian plant response rating (0 to 100 scale) [7]	Ryegrass, Italian plant response rating [7]	Barnyardgrass plant response rating (0 to 100 scale) [8]	Barnyardgrass plant response rating [8]	Blackgrass plant response rating (0 to 100 scale) [9]	Blackgrass plant response rating [9]	Corn plant response rating (0 to 100 scale) (corn (Zea mays))	Corn plant response rating (corn (Zea mays))	also measured
CO/N=C(\c1cscc1C)c1c(O)c(C)nn(C)c1=O [Compound 52]	0	40	0	10	0	10	0	20	60	80	0	30	80	10	30	10	30	0	0	0	Foxtail, Giant plant response rating (0 to 100 scale) [10]: 20; Foxtail, Giant plant response rating [10]: 10; Galium plant response rating (0 to 100 scale) [11]: 80; Galium plant response rating [11]: 70; Kochia plant response rating (0 to 100 scale) (kochia (Kochia scoparia) [12]): 60; Kochia plant response rating (kochia (Kochia scoparia) [12]): 20; Pigweed plant response rating (0 to 100 scale) [13]: 90; Pigweed plant response rating [13]: 70; Ragweed plant response rating (0 to 100 scale) [14]: 90; Ragweed plant response rating [14]: 60; Wheat plant response rating (0 to 100 scale) [15]: 0; Wheat plant response rating [15]: 0; Plant response rating, Barnyardgrass (0 to 100 scale, 0 is no effect, 100 is complete control) [16]: 0; Plant response rating, Ducksalad (0 to 100 scale, 0 is no effect, 100 is complete control) [17]: 0; Plant response rating, Rice (0 to 100 scale, 0 is no effect, 100 is complete control) (rice (Oryza sativa)): 0; Plant response rating, Sedge, Umbrella (0 to 100 scale, 0 is no effect, 100 is complete control) [18]: 0
CO/N=C(\c1cccc(C#N)c1)c1c(O)c(C)nn(C)c1=O [Compound 74]	0	0	0	0	0	0	0	0	0	0	0	0	20	10	0	0	20	0	0	0	Foxtail, Giant plant response rating (0 to 100 scale) [10]: 0; Foxtail, Giant plant response rating [10]: 0; Galium plant response rating (0 to 100 scale) [11]: 50; Galium plant response rating [11]: 10; Kochia plant response rating (0 to 100 scale) (kochia (Kochia scoparia) [12]): 30; Kochia plant response rating (kochia (Kochia scoparia) [12]): 0; Pigweed plant response rating (0 to 100 scale) [13]: 30; Pigweed plant response rating [13]: 20; Ragweed plant response rating (0 to 100 scale) [14]: 20; Ragweed plant response rating [14]: 0; Wheat plant response rating (0 to 100 scale) [15]: 0; Wheat plant response rating [15]: 0; Plant response rating, Barnyardgrass (0 to 100 scale, 0 is no effect, 100 is complete control) [16]: 0; Plant response rating, Ducksalad (0 to 100 scale, 0 is no effect, 100 is complete control) [17]: 25; Plant response rating, Rice (0 to 100 scale, 0 is no effect, 100 is complete control) (rice (Oryza sativa)): 15; Plant response rating, Sedge, Umbrella (0 to 100 scale, 0 is no effect, 100 is complete control) [18]: 10
CO/N=C(/c1cc(Cl)ccc1C(F)(F)F)c1c(O)c(C)nn(C)c1=O [Compound 95]	90	100	60	60	80	100	10	70	50	100	30	100	100	80	60	50	100	60	40	0	Foxtail, Giant plant response rating (0 to 100 scale) [10]: 80; Foxtail, Giant plant response rating [10]: 60; Galium plant response rating (0 to 100 scale) [11]: 90; Galium plant response rating [11]: 80; Kochia plant response rating (0 to 100 scale) (kochia (Kochia scoparia) [12]): 80; Kochia plant response rating (kochia (Kochia scoparia) [12]): 60; Pigweed plant response rating (0 to 100 scale) [13]: 80; Pigweed plant response rating [13]: 70; Ragweed plant response rating (0 to 100 scale) [14]: 90; Ragweed plant response rating [14]: 80; Wheat plant response rating (0 to 100 scale) [15]: 70; Wheat plant response rating [15]: 40; Plant response rating, Barnyardgrass (0 to 100 scale, 0 is no effect, 100 is complete control) [16]: 0; Plant response rating, Ducksalad (0 to 100 scale, 0 is no effect, 100 is complete control) [17]: 0; Plant response rating, Rice (0 to 100 scale, 0 is no effect, 100 is complete control) (rice (Oryza sativa)): 0; Plant response rating, Sedge, Umbrella (0 to 100 scale, 0 is no effect, 100 is complete control) [18]: 0
